System: SW1271 complex spheroids with HUVEC/MSC, growth, % test/control
Assay: Anticancer human tumor SW1271 cell line growth inhibition [AhR];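 also: spheroids exposed to agents for 7 days before readout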
Conditions: for IC50: curve of first compound; for viability, T/C: stronger effect = lower value
Method in brief: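 Spheroids combined tumor cells with HUVEC endothelial cells and human MSCs as stroma. AhR antagonists were paired with standard or investigational drugs, each dosed in half-log steps down from near clinical Cmax, or from 10 microM where Cmax was unknown.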

[1] = second compound 0.1 µM, first compound 0.0316 µM
[2] = second compound 0.1 µM, first compound 0.1 µM
[3] = second compound 0.1 µM, first compound 0.316 µM
[4] = second compound 0.1 µM, first compound 1 µM
[5] = second compound 0.1 µM, first compound 3.16 µM
[6] = second compound 0.1 µM, first compound 10 µM
[7] = second compound 0.316 µM, first compound 0.0316 µM
[8] = second compound 0.316 µM, first compound 0.1 µM
[9] = second compound 0.316 µM, first compound 0.316 µM
[10] = second compound 0.316 µM, first compound 1 µM
[11] = second compound 0.316 µM, first compound 3.16 µM
[12] = second compound 0.316 µM, first compound 10 µM
[13] = second compound 1 µM, first compound 0.0316 µM
[14] = second compound 1 µM, first compound 0.1 µM
[15] = second compound 1 µM, first compound 0.316 µM
[16] = second compound 1 µM, first compound 1 µM
[17] = second compound 1 µM, first compound 3.16 µM
[18] = second compound 1 µM, first compound 10 µM
[19] = second compound 3.16 µM, first compound 0.0316 µM
[20] = second compound 3.16 µM, first compound 0.1 µM
[21] = second compound 3.16 µM, first compound 0.316 µM
[22] = second compound 3.16 µM, first compound 1 µM
[23] = second compound 3.16 µM, first compound 3.16 µM
[24] = second compound 3.16 µM, first compound 10 µM
[25] = second compound 10 µM, first compound 0.0316 µM
[26] = second compound 10 µM, first compound 0.1 µM
[27] = second compound 10 µM, first compound 0.316 µM
[28] = second compound 10 µM, first compound 1 µM
[29] = second compound 10 µM, first compound 3.16 µM
[30] = second compound 10 µM, first compound 10 µM
[31] = second compound 0.1 µM, first compound 0.00316 µM
[32] = second compound 0.1 µM, first compound 0.01 µM
[33] = second compound 0.316 µM, first compound 0.00316 µM
[34] = second compound 0.316 µM, first compound 0.01 µM
[35] = second compound 1 µM, first compound 0.00316 µM
[36] = second compound 1 µM, first compound 0.01 µM
[37] = second compound 3.16 µM, first compound 0.00316 µM
[38] = second compound 3.16 µM, first compound 0.01 µM
[39] = second compound 10 µM, first compound 0.00316 µM
[40] = second compound 10 µM, first compound 0.01 µM

SMILES	IC50 (second compound 0.1 µM) [nM]	IC50 (second compound 0.316 µM) [nM]	IC50 (second compound 1 µM) [nM]	IC50 (second compound 3.16 µM) [nM]	IC50 (second compound 10 µM) [nM]	viability, T/C [1] [%]	viability, T/C [2] [%]	viability, T/C [3] [%]	viability, T/C [4] [%]	viability, T/C [7] [%]	viability, T/C [8] [%]	viability, T/C [9] [%]	viability, T/C [10] [%]	viability, T/C [13] [%]	viability, T/C [14] [%]	viability, T/C [15] [%]	viability, T/C [19] [%]	viability, T/C [20] [%]	viability, T/C [25] [%]	viability, T/C [26] [%]	further results
CC(C)c1c(-c2ccccc2)nc2c(C#N)c[nH]n2c1=O + Cc1ccccc1N=Nc1ccc(NC(=O)c2ccnn2C)c(C)c1	> 10000	> 10000	> 10000	> 10000	> 10000	99.6	85.9	94.9	78	102	110	112	107	90.5	97.6	91	93.3	88.3	76.5	88.5	viability, T/C [5]: 102%; viability, T/C [6]: 102%; viability, T/C [11]: 85.3%; viability, T/C [12]: 77.3%; viability, T/C [16]: 113%; viability, T/C [17]: 107%; viability, T/C [18]: 94.4%; viability, T/C [21]: 130%; viability, T/C [22]: 109%; viability, T/C [23]: 119%; viability, T/C [24]: 101%; viability, T/C [27]: 108%; viability, T/C [28]: 113%; viability, T/C [29]: 88.2%; viability, T/C [30]: 87.6%
CC[C@@]1(O)C(=O)OCc2c1cc1n(c2=O)Cc2cc3c(CN(C)C)c(O)ccc3nc2-1 + Cc1cncc(-c2nc(NCCc3c[nH]c4ccccc34)c3ncn(C(C)C)c3n2)c1	> 100	> 100	> 100	> 100	11.9	105	91	–	–	102	67	–	–	77.4	80.2	–	96	78	45	37.1	viability, T/C (second compound 0.1 µM, first compound 0.000316 µM): 85.2%; viability, T/C (second compound 0.1 µM, first compound 0.001 µM): 99.7%; viability, T/C [31]: 124%; viability, T/C [32]: 84.9%; viability, T/C (second compound 0.316 µM, first compound 0.000316 µM): 93.5%; viability, T/C (second compound 0.316 µM, first compound 0.001 µM): 114%; viability, T/C [33]: 108%; viability, T/C [34]: 94.3%; viability, T/C (second compound 1 µM, first compound 0.000316 µM): 100%; viability, T/C (second compound 1 µM, first compound 0.001 µM): 118%; viability, T/C [35]: 108%; viability, T/C [36]: 88.9%; viability, T/C (second compound 3.16 µM, first compound 0.000316 µM): 95.2%; viability, T/C (second compound 3.16 µM, first compound 0.001 µM): 109%; viability, T/C [37]: 106%; viability, T/C [38]: 86.5%; viability, T/C (second compound 10 µM, first compound 0.000316 µM): 66.1%; viability, T/C (second compound 10 µM, first compound 0.001 µM): 62.2%; viability, T/C [39]: 52%; viability, T/C [40]: 54.5%
COc1cc(C2c3cc4c(cc3C(OC3OC5COC(C)OC5C(O)C3O)C3COC(=O)C23)OCO4)cc(OC)c1O (stereo not given) + Cc1cncc(-c2nc(NCCc3c[nH]c4ccccc34)c3ncn(C(C)C)c3n2)c1	> 10000	> 10000	> 10000	> 10000	< 31.6	81.6	88.5	68.1	60.7	86.1	86.3	67.4	53.8	96.2	80.1	79.2	89.8	99.2	41.5	39.6	viability, T/C [5]: 63.6%; viability, T/C [6]: 65.3%; viability, T/C [11]: 66.1%; viability, T/C [12]: 53.4%; viability, T/C [16]: 80.9%; viability, T/C [17]: 55.9%; viability, T/C [18]: 72%; viability, T/C [21]: 112%; viability, T/C [22]: 76.2%; viability, T/C [23]: 72.4%; viability, T/C [24]: 70.6%; viability, T/C [27]: 41%; viability, T/C [28]: 35.4%; viability, T/C [29]: 32.6%; viability, T/C [30]: 29.1%
COc1cccc2c1C(=O)c1c(O)c3c(c(O)c1C2=O)CC(O)(C(=O)CO)CC3OC1CC(N)C(O)C(C)O1 (stereo not given) + Cc1cncc(-c2nc(NCCc3c[nH]c4ccccc34)c3ncn(C(C)C)c3n2)c1	332	280	380	258	< 31.6	74	79.5	51.9	6.7	81.5	72.4	47.1	2.96	89.5	89	58.8	95	77.8	48	38.4	viability, T/C [5]: 3.78%; viability, T/C [6]: 5.75%; viability, T/C [11]: 3.17%; viability, T/C [12]: 6.88%; viability, T/C [16]: 1.94%; viability, T/C [17]: 4.32%; viability, T/C [18]: 4.87%; viability, T/C [21]: 46.4%; viability, T/C [22]: 1.86%; viability, T/C [23]: 5.28%; viability, T/C [24]: 7.13%; viability, T/C [27]: 24.3%; viability, T/C [28]: 3.36%; viability, T/C [29]: 9.24%; viability, T/C [30]: 7.74%
Nc1ccn(C2OC(CO)C(O)C2(F)F)c(=O)n1 (stereo not given) + Cc1cncc(-c2nc(NCCc3c[nH]c4ccccc34)c3ncn(C(C)C)c3n2)c1	> 10000	> 10000	> 10000	> 10000	< 31.6	75.4	97.1	67	64	60.5	65.8	68	64.3	74.2	72.8	85.4	81.1	78.6	39.5	38.2	viability, T/C [5]: 62.7%; viability, T/C [6]: 54.6%; viability, T/C [11]: 66.9%; viability, T/C [12]: 56.8%; viability, T/C [16]: 65%; viability, T/C [17]: 67.8%; viability, T/C [18]: 58.4%; viability, T/C [21]: 103%; viability, T/C [22]: 65%; viability, T/C [23]: 81.8%; viability, T/C [24]: 75.2%; viability, T/C [27]: 39.3%; viability, T/C [28]: 36.7%; viability, T/C [29]: 37.8%; viability, T/C [30]: 30.6%
Nc1ncn(C2CC(O)C(CO)O2)c(=O)n1 (stereo not given) + Cc1cncc(-c2nc(NCCc3c[nH]c4ccccc34)c3ncn(C(C)C)c3n2)c1	> 1000	> 1000	> 1000	> 1000	307	104	87	83.1	83.8	111	83.4	76.3	95.1	107	77.3	111	87.9	104	51	53	viability, T/C [31]: 107%; viability, T/C [32]: 123%; viability, T/C [33]: 105%; viability, T/C [34]: 92.6%; viability, T/C [35]: 88.1%; viability, T/C [36]: 90.5%; viability, T/C [16]: 84%; viability, T/C [37]: 97.4%; viability, T/C [38]: 103%; viability, T/C [21]: 90%; viability, T/C [22]: 110%; viability, T/C [39]: 52.4%; viability, T/C [40]: 54.8%; viability, T/C [27]: 48.9%; viability, T/C [28]: 47.5%
